Values joined by “and” are separate entries in the source; they are usually repeats but may differ in a detail not shown here. Equal values may be shown once. Read-outs that look alike come from different tables or passages of the source.
How the values were obtained:
FA19-rpoH-lacZ = experiment: Gonococcal growth in liquid culture (GC broth) with hormones (Fig S7)
FA19 mtrD::kan (KH14) = experiment: MIC of steroidal hormones on GC agar, FA19 mtrD::kan (KH14); format: cell-based, Neisseria gonorrhoeae
Method: (§1) To determine the minimal inhibitory concentrations (MICs) by the steroidal hormones and their effect on antimicrobial susceptibility, 5 x 10^5 CFU and 1:5 serial dilutions of gonococcal strains were spotted on GC agar plates containing different concentrations of antibiotics and/or hormones as indicated. Antimicrobial susceptibility was assessed after 24 h incubation.
(§2) Table S1. Steroidal hormones are substrates of the MtrCDE efflux pump
(§3) Progesterone Testosterone
(§4) *Minimal inhibition concentration is defined by the lowest concentration at which visible growth is […]

[1] = system: mutant strain JF1 (ΔmtrR); experiment: Antimicrobial susceptibility spot assay with hormone plus antibiotic, JF1 (ΔmtrR); format: cell-based, Neisseria gonorrhoeae; settings: derivative lacking MtrR (JF1), azithromycin
Method: Fig. 5 Effect of steroidal hormones on gonococcal antimicrobial susceptibility.
as §1

gonococcal strain FA19 = experiment: MIC of steroidal hormones on GC agar, strain FA19; format: cell-based; settings: Neisseria gonorrhoeae
Method: as §1, §2, §3, §4

Q: With C[C@]12CC[C@@H]3c4ccc(O)cc4CC[C@H]3[C@@H]1CC[C@@H]2O [β-Estradiol, β-estradiol] as the compound, how does the “growth curve reading after BLANKING” value (FA19-rpoH-lacZ; 1.18 hr, 1 µM) read?
A: 0.020

Q: What about the “growth curve reading, raw replicates” value (FA19-rpoH-lacZ; 1.18 hr, 1 µM) of the same compound?
A: 0.054 and 0.052

Q: What about the “growth curve reading after BLANKING” value (FA19-rpoH-lacZ; 1.18 hr, 10 µM) of the same compound?
A: 0.020

Q: And the “growth curve reading, raw replicates” value (FA19-rpoH-lacZ; 1.18 hr, 10 µM)?
A: 0.053 and 0.054

Q: What about the “growth curve reading after BLANKING” value (FA19-rpoH-lacZ; 1.18 hr, 25 µM) of the same compound?
A: 0.021

Q: And the “growth curve reading, raw replicates” value (FA19-rpoH-lacZ; 1.18 hr, 25 µM)?
A: 0.053 and 0.056

Q: What about the “growth curve reading after BLANKING” value (FA19-rpoH-lacZ; 1.18 hr, 50 µM) of the same compound?
A: 0.019

Q: And the “growth curve reading, raw replicates” value (FA19-rpoH-lacZ; 1.18 hr, 50 µM)?
A: 0.052 and 0.053

Q: And the “growth curve reading after BLANKING” value (FA19-rpoH-lacZ; 2 hr, 0.1 µM)?
A: 0.030

Q: What about the “growth curve reading, raw replicates” value (FA19-rpoH-lacZ; 2 hr, 0.1 µM) of the same compound?
A: 0.062 and 0.065

Q: And the “growth curve reading after BLANKING” value (FA19-rpoH-lacZ; 2 hr, 1 µM)?
A: 0.030

Q: And the “growth curve reading, raw replicates” value (FA19-rpoH-lacZ; 2 hr, 1 µM)?
A: 0.063

Q: What about the “growth curve reading after BLANKING” value (FA19-rpoH-lacZ; 2 hr, 10 µM) of the same compound?
A: 0.031

Q: And the “growth curve reading, raw replicates” value (FA19-rpoH-lacZ; 2 hr, 10 µM)?
A: 0.063 and 0.065

Q: What about the “growth curve reading after BLANKING” value (FA19-rpoH-lacZ; 2 hr, 25 µM) of the same compound?
A: 0.030

Q: And the “growth curve reading, raw replicates” value (FA19-rpoH-lacZ; 2 hr, 25 µM)?
A: 0.062 and 0.064

Q: And the “growth curve reading after BLANKING” value (FA19-rpoH-lacZ; 2 hr, 50 µM)?
A: 0.030

Q: And the “growth curve reading, raw replicates” value (FA19-rpoH-lacZ; 2 hr, 50 µM)?
A: 0.063

Q: What about the “growth curve reading after BLANKING” value (FA19-rpoH-lacZ; 3 hr, 0.1 µM) of the same compound?
A: 0.041

Q: And the “growth curve reading, raw replicates” value (FA19-rpoH-lacZ; 3 hr, 0.1 µM)?
A: 0.076 and 0.072

Q: What about the “growth curve reading after BLANKING” value (FA19-rpoH-lacZ; 3 hr, 1 µM) of the same compound?
A: 0.041

Q: And the “growth curve reading, raw replicates” value (FA19-rpoH-lacZ; 3 hr, 1 µM)?
A: 0.074 and 0.073

Q: And the “growth curve reading after BLANKING” value (FA19-rpoH-lacZ; 3 hr, 10 µM)?
A: 0.043

Q: And the “growth curve reading, raw replicates” value (FA19-rpoH-lacZ; 3 hr, 10 µM)?
A: 0.079 and 0.074

Q: What about the “growth curve reading after BLANKING” value (FA19-rpoH-lacZ; 3 hr, 25 µM) of the same compound?
A: 0.044

Q: What about the “growth curve reading, raw replicates” value (FA19-rpoH-lacZ; 3 hr, 25 µM) of the same compound?
A: 0.078 and 0.075

Q: And the “growth curve reading after BLANKING” value (FA19-rpoH-lacZ; 3 hr, 50 µM)?
A: 0.040

Q: What about the “growth curve reading, raw replicates” value (FA19-rpoH-lacZ; 3 hr, 50 µM) of the same compound?
A: 0.074 and 0.072

Q: And the “growth curve reading after BLANKING” value (FA19-rpoH-lacZ; 4 hr, 0.1 µM)?
A: 0.055

Q: What about the “growth curve reading, raw replicates” value (FA19-rpoH-lacZ; 4 hr, 0.1 µM) of the same compound?
A: 0.087 and 0.090

Q: What about the “growth curve reading after BLANKING” value (FA19-rpoH-lacZ; 4 hr, 1 µM) of the same compound?
A: 0.056

Q: What about the “growth curve reading, raw replicates” value (FA19-rpoH-lacZ; 4 hr, 1 µM) of the same compound?
A: 0.089 and 0.088

Q: And the “growth curve reading after BLANKING” value (FA19-rpoH-lacZ; 4 hr, 10 µM)?
A: 0.057

Q: And the “growth curve reading, raw replicates” value (FA19-rpoH-lacZ; 4 hr, 10 µM)?
A: 0.088 and 0.092

Q: What about the “growth curve reading after BLANKING” value (FA19-rpoH-lacZ; 4 hr, 25 µM) of the same compound?
A: 0.060

Q: And the “growth curve reading, raw replicates” value (FA19-rpoH-lacZ; 4 hr, 25 µM)?
A: 0.093

Q: And the “growth curve reading after BLANKING” value (FA19-rpoH-lacZ; 4 hr, 50 µM)?
A: 0.052

Q: What about the “growth curve reading, raw replicates” value (FA19-rpoH-lacZ; 4 hr, 50 µM) of the same compound?
A: 0.082 and 0.088

Q: And the “growth curve reading after BLANKING” value (FA19-rpoH-lacZ; 5 hr, 0.1 µM)?
A: 0.072

Q: And the “growth curve reading, raw replicates” value (FA19-rpoH-lacZ; 5 hr, 0.1 µM)?
A: 0.104 and 0.106

Q: And the “growth curve reading after BLANKING” value (FA19-rpoH-lacZ; 5 hr, 1 µM)?
A: 0.072

Q: And the “growth curve reading, raw replicates” value (FA19-rpoH-lacZ; 5 hr, 1 µM)?
A: 0.105

Q: And the “growth curve reading after BLANKING” value (FA19-rpoH-lacZ; 5 hr, 10 µM)?
A: 0.071

Q: And the “growth curve reading, raw replicates” value (FA19-rpoH-lacZ; 5 hr, 10 µM)?
A: 0.103 and 0.105

Q: What about the “growth curve reading after BLANKING” value (FA19-rpoH-lacZ; 5 hr, 25 µM) of the same compound?
A: 0.076

Q: What about the “growth curve reading, raw replicates” value (FA19-rpoH-lacZ; 5 hr, 25 µM) of the same compound?
A: 0.113 and 0.106

Q: What about the “growth curve reading after BLANKING” value (FA19-rpoH-lacZ; 5 hr, 50 µM) of the same compound?
A: 0.065

Q: What about the “growth curve reading, raw replicates” value (FA19-rpoH-lacZ; 5 hr, 50 µM) of the same compound?
A: 0.094 and 0.103

Q: What about the “growth curve reading after BLANKING” value (FA19-rpoH-lacZ; 5.95 hr, 0.1 µM) of the same compound?
A: 0.090

Q: What about the “growth curve reading, raw replicates” value (FA19-rpoH-lacZ; 5.95 hr, 0.1 µM) of the same compound?
A: 0.124 and 0.123

Q: And the “growth curve reading after BLANKING” value (FA19-rpoH-lacZ; 5.95 hr, 1 µM)?
A: 0.093

Q: And the “growth curve reading, raw replicates” value (FA19-rpoH-lacZ; 5.95 hr, 1 µM)?
A: 0.126 and 0.125

Q: And the “growth curve reading after BLANKING” value (FA19-rpoH-lacZ; 5.95 hr, 10 µM)?
A: 0.086

Q: And the “growth curve reading, raw replicates” value (FA19-rpoH-lacZ; 5.95 hr, 10 µM)?
A: 0.118 and 0.119

Q: What about the “growth curve reading, raw replicates” value (FA19-rpoH-lacZ; 5.95 hr, 25 µM) of the same compound?
A: 0.134 and 0.124

Q: And the “growth curve reading after BLANKING” value (FA19-rpoH-lacZ; 5.95 hr, 50 µM)?
A: 0.083

Q: What about the “growth curve reading, raw replicates” value (FA19-rpoH-lacZ; 5.95 hr, 50 µM) of the same compound?
A: 0.110 and 0.122

Q: And the “growth curve reading, raw replicates” value (FA19-rpoH-lacZ; 6.82 hr, 0.1 µM)?
A: 0.137 and 0.133

Q: What about the “growth curve reading, raw replicates” value (FA19-rpoH-lacZ; 6.82 hr, 1 µM) of the same compound?
A: 0.143 and 0.139

Q: And the “growth curve reading after BLANKING” value (FA19-rpoH-lacZ; 6.82 hr, 10 µM)?
A: 0.092

Q: What about the “growth curve reading, raw replicates” value (FA19-rpoH-lacZ; 6.82 hr, 10 µM) of the same compound?
A: 0.127 and 0.123

Q: And the “growth curve reading after BLANKING” value (FA19-rpoH-lacZ; 6.82 hr, 25 µM)?
A: 0.114

Q: And the “growth curve reading, raw replicates” value (FA19-rpoH-lacZ; 6.82 hr, 25 µM)?
A: 0.156 and 0.139

Q: And the “growth curve reading, raw replicates” value (FA19-rpoH-lacZ; 6.82 hr, 50 µM)?
A: 0.124 and 0.136

Q: What about the MIC (FA19 mtrD::kan (KH14); Neisseria gonorrhoeae) of the same compound?
A: 320 µg/mL and 1180 µM

Q: What about the “effect of mtrD deletion on MIC” value (FA19 mtrD::kan (KH14); vs FA19) of the same compound?
A: lowered

Q: And the “change in antibiotic resistance in presence of sub-lethal hormone” value [1]?
A: did not show change

Q: And the MIC (gonococcal strain FA19; FA19, 24 h)?
A: > 1180 µM

Q: And the MIC (gonococcal strain FA19; strain FA19, GC agar, read-out: MIC)?
A: > 320 µg/mL
